Data as given in patent US20220105051A1, “COMPOUNDS FOR INCREASING MHC-I EXPRESSION AND MODULATING HISTONE DEACETYLASE ACTIVITY” (Cava Healthcare Inc., priority 2019, published 2022).
“Also recorded” adds a separate entry of the source.

Tests used:
HDAC6 = target: T1, HDAC6 (Homo sapiens, UniProt Q9UBN7); experiment: Individualized HDAC assay, HDAC6; assay type: biochemical; conditions: purified enzyme, 5 to 0.02 μM
T1 construct: purchased BPS Biosciences
T1 sequence (Q9UBN7 1-1215): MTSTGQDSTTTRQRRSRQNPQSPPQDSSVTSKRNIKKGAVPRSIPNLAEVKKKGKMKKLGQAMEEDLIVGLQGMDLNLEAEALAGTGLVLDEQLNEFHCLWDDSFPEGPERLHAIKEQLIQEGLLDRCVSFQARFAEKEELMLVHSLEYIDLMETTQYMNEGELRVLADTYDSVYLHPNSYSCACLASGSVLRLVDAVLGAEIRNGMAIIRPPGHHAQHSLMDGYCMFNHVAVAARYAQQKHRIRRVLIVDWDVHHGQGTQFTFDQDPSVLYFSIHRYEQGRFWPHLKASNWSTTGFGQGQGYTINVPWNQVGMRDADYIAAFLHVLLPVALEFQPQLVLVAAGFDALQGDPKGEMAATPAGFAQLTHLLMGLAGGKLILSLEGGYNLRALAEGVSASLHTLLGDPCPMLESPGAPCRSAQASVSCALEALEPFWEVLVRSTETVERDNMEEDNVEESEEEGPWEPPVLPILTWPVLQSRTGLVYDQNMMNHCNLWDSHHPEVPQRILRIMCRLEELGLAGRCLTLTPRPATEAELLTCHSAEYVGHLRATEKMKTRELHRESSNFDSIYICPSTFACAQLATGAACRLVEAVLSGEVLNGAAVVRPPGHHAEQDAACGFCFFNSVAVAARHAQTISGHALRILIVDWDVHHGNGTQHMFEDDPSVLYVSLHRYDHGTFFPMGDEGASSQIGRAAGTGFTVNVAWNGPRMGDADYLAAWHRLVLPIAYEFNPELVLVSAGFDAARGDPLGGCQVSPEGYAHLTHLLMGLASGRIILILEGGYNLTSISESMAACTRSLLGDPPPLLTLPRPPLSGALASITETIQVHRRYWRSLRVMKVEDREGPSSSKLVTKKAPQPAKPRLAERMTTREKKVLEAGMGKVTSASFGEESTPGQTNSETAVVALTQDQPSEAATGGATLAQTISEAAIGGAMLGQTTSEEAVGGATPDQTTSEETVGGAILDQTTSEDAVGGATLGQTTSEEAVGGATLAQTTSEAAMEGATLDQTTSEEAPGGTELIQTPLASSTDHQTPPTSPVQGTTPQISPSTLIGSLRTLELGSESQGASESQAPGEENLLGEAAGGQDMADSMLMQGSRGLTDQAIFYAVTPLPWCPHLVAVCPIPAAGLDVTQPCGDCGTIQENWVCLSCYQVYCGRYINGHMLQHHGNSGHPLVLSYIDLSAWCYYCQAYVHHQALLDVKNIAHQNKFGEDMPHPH
Method: The activity of the curcuphenol analogues was assessed with purified HDAC enzymes from all classes I, II, and IV, as well as a select member of HDAC class III (SIRT1). HDACs 1-9 and SIRT1 were evaluated using HDAC Fluorogenic Assay Kits (BPS Biosciences). All assays were completed in black-sided clear-bottom 96 well plates (PerkinElmer), and all treatments were plated in triplicates. Treatment started at 5 μM and was two-fold diluted to a concentration 0.02 μM. The assays were measured using the Synergy HI hybrid reader (BioTek) and Gen5 software (BioTek), excitation was set to 360 nm and detection was measured at 450 nm with a gain of 100. Alternatively HDAC 10 and 11 (BPS Biosciences) were optimized for HDAC concentration using the HDAC-Glo™ I/II Assay and Screening System (Promega). Following optimization each HDAC was run following the Promega protocol in black-sided clear-bottomed 96 well plates in triplicates with same treatments listed above (PerkinElmer). Luminescence was read 30 minutes after HDAC-Glo™I/II reagent was added using the Synergy HI hybrid reader (BioTek) and Gen5 software (Bio-Tek). […] To calculate percent activity, the average of blank wells was subtracted from all treatment groups. The relative mean of activity of the HDAC being measured was determined and all wells that received treatment were divided this average, to give a percentage of activity.
To evaluate the effect of the compounds on specific HDACs, their activity was assessed with purified HDAC enzymes from all classes I, II, and IV, as well as a select member of HDAC class III (SIRT1). HDACs 1-9 and SIRT1 were evaluated using HDAC Fluorogenic Assay Kits (BPS Biosciences) following the manufacturer's recommendations. Compound treatment started at 5 μM and was two-fold diluted to a concentration 0.02 μM. […] The assays were measured using the Synergy HI hybrid reader (BioTek) and Gen5 software (Bio-Tek). […] To calculate the fold change in HDAC activity, the values from each treated well were divided by the relative mean of activity of the specific HDAC being measured.

class I/II HDACs = experiment: HDAC-Glo I/II Assay in A9 cells; assay type: cell-based, murine; conditions: for HDAC activity at the lowest concentrations: 1 nM-100 nM; for class I/II HDAC activity: 1 nM-1 μM; for HDAC activity at higher concentrations: up to 1 uM
Method: Compounds P02-113 and P03-97-1 were analyzed for their effect on histone deacetylase activity in the A9 cell line, using the HDAC-Glo™ I/II Assay and Screening System (Promega). The linear range was established for the A9 cells in a black-walled, clear-bottomed 96 well plate (PerkinElmer). Cells were diluted to 10^5 cells/mL and serial diluted by two fold, to a final concentration of 98 cells/ml. All dilutions were plated in triplicates in a volume of 100 ul per well. Cells were left overnight at 37° C. for 24 hours before addition of HDAC class I/II reagent. Luminescence was read after 30 minute incubation with HDAC class I/II reagent. After determination of an optimal cell density of 30,000 cells/well, cells were plated in 96 well plate and left for 24 hours at 37° C. Media was used as a blank control, as well a positive control was included consisting of HeLa cells provided in the HDAC assay kit. […] HDAC class I/II reagent was then added and incubated for 30 minutes before luminescence was measured using the Infinite M200 (Tecan) and i-control software (Tecan).
HDAC assays. To assess the effect of the compounds on the relative activity of histone deacetylase (HDAC) class I and II enzymes in the A9 cell line, we used the HDAC-Glo™ I/II Assay and Screening System (Promega). The linear range was established for the A9 cells following the manufacturer's instructions. Thirty thousand cells per well were plated in clear-bottom 96-well plates (Perkin Elmer) and plates were incubated at 37° C. […] Cell culture media was used as a blank control and HeLa cells provided in the HDAC assay kit were used as a positive control. HDAC class I/II reagent was then added and incubated for 30 minutes before luminescence was measured using the Infinite M200 (Tecan) and i-control software (Tecan).

HDAC2 = target: T2, HDAC2 (Homo sapiens, UniProt Q92769); experiment: Individualized HDAC assay, HDAC2; assay type: biochemical; conditions: purified enzyme, 5 to 0.02 μM
T2 construct: purchased BPS Biosciences
T2 sequence (Q92769 whole entry): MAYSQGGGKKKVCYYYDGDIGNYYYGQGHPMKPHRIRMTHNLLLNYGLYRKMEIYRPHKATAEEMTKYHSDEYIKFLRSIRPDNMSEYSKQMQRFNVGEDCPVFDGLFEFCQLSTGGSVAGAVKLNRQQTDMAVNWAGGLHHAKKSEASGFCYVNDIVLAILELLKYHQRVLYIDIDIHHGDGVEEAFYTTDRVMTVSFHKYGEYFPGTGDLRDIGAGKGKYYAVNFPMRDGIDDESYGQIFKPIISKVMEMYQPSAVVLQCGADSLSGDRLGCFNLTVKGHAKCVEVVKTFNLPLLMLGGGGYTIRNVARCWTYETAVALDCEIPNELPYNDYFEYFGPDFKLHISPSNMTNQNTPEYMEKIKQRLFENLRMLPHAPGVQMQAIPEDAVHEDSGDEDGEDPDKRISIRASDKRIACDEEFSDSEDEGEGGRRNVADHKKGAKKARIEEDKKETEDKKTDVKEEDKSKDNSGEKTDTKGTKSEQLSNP
Method: The activity of the curcuphenol analogues was assessed with purified HDAC enzymes from all classes I, II, and IV, as well as a select member of HDAC class III (SIRT1). HDACs 1-9 and SIRT1 were evaluated using HDAC Fluorogenic Assay Kits (BPS Biosciences). All assays were completed in black-sided clear-bottom 96 well plates (PerkinElmer), and all treatments were plated in triplicates. Treatment started at 5 μM and was two-fold diluted to a concentration 0.02 μM. The assays were measured using the Synergy HI hybrid reader (BioTek) and Gen5 software (BioTek), excitation was set to 360 nm and detection was measured at 450 nm with a gain of 100. […] Luminescence was read 30 minutes after HDAC-Glo™I/II reagent was added using the Synergy HI hybrid reader (BioTek) and Gen5 software (Bio-Tek). […] The relative mean of activity of the HDAC being measured was determined and all wells that received treatment were divided this average, to give a percentage of activity.
To evaluate the effect of the compounds on specific HDACs, their activity was assessed with purified HDAC enzymes from all classes I, II, and IV, as well as a select member of HDAC class III (SIRT1). HDACs 1-9 and SIRT1 were evaluated using HDAC Fluorogenic Assay Kits (BPS Biosciences) following the manufacturer's recommendations. […] The assays were measured using the Synergy HI hybrid reader (BioTek) and Gen5 software (Bio-Tek). […]

For `CC(C)=CCCCc1ccc(C)cc1O` [P02-113], the HDAC6 activity (HDAC6) was “no change in activity; also recorded: did not affect the activity; also recorded: unaffected”, the “concentration of peak in HDAC activity” value (class I/II HDACs) was “around 180 nM” and the “HDAC activity at the lowest concentrations” value (class I/II HDACs) was “induction of HDAC activity”. For the same compound, the “class I/II HDAC activity” value (class I/II HDACs) was “increase in class I/II HDAC activity”, the “HDAC activity at higher concentrations” value (class I/II HDACs) was “started to reduce it effect at higher concentrations; also recorded: started to reduce the effect at higher concentrations” and the HDAC2 activity (HDAC2) was “no significant change in HDAC activity”.

With `COc1ccc(C(C)CCC=C(C)C)c(O)c1` (stereo not shown) [P03-97-1] the HDAC6 activity (HDAC6) was “no change in activity; also recorded: unaffected”, the HDAC6 activity (HDAC6; listed as PO-3-97-1) was “did not affect the activity” and the “concentration of peak in HDAC activity” value (class I/II HDACs) was “around 180 nM”. The “HDAC activity at the lowest concentrations” value (class I/II HDACs) was “induction of HDAC activity”, the “class I/II HDAC activity” value (class I/II HDACs) was “increase in class I/II HDAC activity” and the “HDAC activity at higher concentrations” value (class I/II HDACs) was “maintained peak levels of HDAC activity”. For the same compound, the HDAC2 activity (HDAC2) was “no significant change in HDAC activity”.
